# Columns and labels:
# ChEH [1] = molecular target: T1, ChEH (Homo sapiens, UniProt Q15125); assay: Inhibition of ChEH activity in MCF7 cells (TLC of [14C]CE conversion); assay type: cell-based; settings: tamoxifen 0.01-5 μM with [14C]CEα; PBPE 0.01-10 μM with [14C]CEβ
# T1 construct: MCF7 tumor cells, which originate from the American Tissue Culture Collection (ATCC), were used; host or cells: MCF7
# Procedure: For this experiment, an aminoalkyl sterol included in French patent 2 838 741 (and also see: de Medina et al., J Med Chem: 2009, vol. 52, No. 23, p. 7765-7777), having the formula: 6-N-[2-(3H-imidazol-4-yl)ethylamino]cholestane-3β,5α-diol (DDA), was chosen. […]
# A thin-layer chromatography was carried out, the plate of which has been reproduced in FIG. 23. On this plate, the incubation is carried out, for lane 1, with [^14C]CE; for lane 2, with [^14C]CT; for lane 3, with the vehicle solvent, which is the same as that used for assays 1 to 5; for lane 4, with [14C]CE and 0.1 μM of the aminoalkyl sterol; and for lane 5, with [^14C]CE and a concentration of 1 μM of the aminoalkyl sterol.
# A-549 = assay: Inhibition of OCDO production by PBPE in A-549; assay type: cell-based; settings: Homo sapiens, A549, 40 μM PBPE, 48 hours
# Procedure: (§1) An analogous experiment was reproduced with different cell lines, with the cells tested being incubated for 48 hours in a 40 μM solution of PBPE. It was noted that the OCDO was 100% inhibited for all the lines in the following table that were tested:
# (§2) Generally, in order to establish the percentages of OCDO inhibition from the thin-layer chromatography (TLC) plates obtained as in assay 2, the radioactive metabolites are identified and quantified on the basis of said plates using a europium-sensitive plate of GP Phosphor screen type (GE Healthcare) and a Storm 840 phosphorimagor (GE Healthcare). The proportion of radiolabeled oxysterols is determined on the autoradiogram obtained by densitometry using the Image Quant 5.2 software. The percentage is calculated on the basis of the ratio between the amount of oxysterols quantified divided by the sum of the amounts of oxysterols (CEE+CE+CT+OCDO). Since the CEE (CE ester) originates exclusively from the CE, the percentage CE is calculated on the basis of the ratio (CE+CEE)/(CE+CEE+CT+OCDO).
# SH-N-SH = assay: Inhibition of OCDO production by PBPE in SH-N-SH; assay type: cell-based; settings: Homo sapiens, 48 h, read-out: Inhibition of OCDO production
# Procedure: as §1, §2
# ChEH [2] = molecular target: T2, ChEH (Rattus norvegicus, UniProt Q9JJ46); assay: Determination of the Ki for ChEH on rat liver microsome proteins (Dixon method); assay type: biochemical; settings: 150 μg rat liver microsome proteins, [14C]CEα
# T2 construct: 150 μg of rat liver microsome proteins are incubated; from tissue; host or cells: rat liver microsomes
# T2 sequence (Q9JJ46 1-230): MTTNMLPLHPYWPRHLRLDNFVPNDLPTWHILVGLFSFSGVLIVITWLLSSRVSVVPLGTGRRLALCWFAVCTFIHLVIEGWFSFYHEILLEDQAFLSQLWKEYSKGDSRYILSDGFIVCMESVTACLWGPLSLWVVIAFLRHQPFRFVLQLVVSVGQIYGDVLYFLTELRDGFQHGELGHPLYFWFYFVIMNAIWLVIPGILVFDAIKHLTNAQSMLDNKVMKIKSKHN
# T1 sequence (Q15125 whole entry): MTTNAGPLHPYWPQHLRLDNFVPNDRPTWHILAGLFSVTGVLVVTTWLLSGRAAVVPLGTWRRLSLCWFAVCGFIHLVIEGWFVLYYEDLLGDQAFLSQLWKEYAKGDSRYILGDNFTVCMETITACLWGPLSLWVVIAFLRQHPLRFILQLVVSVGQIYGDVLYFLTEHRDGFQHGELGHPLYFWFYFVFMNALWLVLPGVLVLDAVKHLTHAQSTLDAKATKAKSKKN
smiles,measurement,setting,value
"c1ccc(Cc2ccc(OCCN3CCCC3)cc2)cc1 [PBPE, N,N-pyrrolidino-[(4-benzyl)phenoxy]ethanamine]",inhibition of the ChEH activity (3 days) in MCF7 cells,ChEH [1],Dose-dependent inhibition
same,inhibition at 40 µM,A-549,100%
same,inhibition at 40 µM,SH-N-SH,100%
same,Ki,ChEH [2],26.8 ± 6 nM

# — patent US20170176446A1, “Methods for Determining the Oncogenic Condition of Cell, Uses Thereof, and Methods for Treating Cancer” (INSERM (INSTITUT NATIONAL DE LA SANTE ET DE LA RECHERCHE …, priority 2009, published 2017)
